Source: patent US20260266803A1, “Induced Pluripotent Stem Cell Model of Fibrous Dysplasia/Mccune-Albright Syndrome and Methods of Use” (The Regents of the University of California, priority 2023, published 2026)

System: GNAS^R201H iPSCs
Test: cAMP in iPSCs stimulated with the β-adrenergic receptor agonist isoproterenol
Assay type: cell-based, human
Details: 10 μM isoproterenol, N=6 in two different iPSC lines
Procedure: FIGS. 3A-3C. […] Representative of n=3. (FIG. 3B) Representative western blot of pluripotent and differentiated (DDX) iPSCs showing increased pCREB and pATF1, consistent with activation of the cAMP pathway. […] N=6 in two different iPSC lines.
Initial screens with a single dose (50 μM) in our GNAS iPSCs identified several compounds with potential as molecular tools ([…].B). We found candidates that inhibited Gsα^R201H but not WT (#46, 47, 43, 2). […] While not desirable for treating FD/MAS or GNAS hyperactivation, these may be useful for treating diseases of GNAS loss of function (e.g., Albright's hereditary osteodystrophy).

CC(C)NCC(O)c1ccc(O)c(O)c1 (stereo not shown) [isoproterenol]
differences in cAMP from baseline: increased differences in cAMP from baseline
